Results from US20180338980A1, “AROMATIC SULFONAMIDE DERIVATIVES” (BAYER PHARMA AKTIENGESELLSCHAFT, priority 2015, published 2018).

Key:
P2X4 [1] = target: T1, P2X4 (Homo sapiens, UniProt Q99571); assay: Assay A: human P2X4 receptor cell line, FLIPR calcium assay (Fluo-8, agonist Bz-ATP at EC80); assay type: cell-based; set-up: host or cells: HEK 293 (recombinant, constitutively expressing; with mitochondrial photina in Assay B); conditions: HEK human P2X4 cells, Fluo-8 FLIPR; for IC50: Bz-ATP at EC80, average values; for Emax: percentage of maximal inhibition, read-out: human P2X4 Assay A avg Efficacy
T1 sequence (Q99571 1-388): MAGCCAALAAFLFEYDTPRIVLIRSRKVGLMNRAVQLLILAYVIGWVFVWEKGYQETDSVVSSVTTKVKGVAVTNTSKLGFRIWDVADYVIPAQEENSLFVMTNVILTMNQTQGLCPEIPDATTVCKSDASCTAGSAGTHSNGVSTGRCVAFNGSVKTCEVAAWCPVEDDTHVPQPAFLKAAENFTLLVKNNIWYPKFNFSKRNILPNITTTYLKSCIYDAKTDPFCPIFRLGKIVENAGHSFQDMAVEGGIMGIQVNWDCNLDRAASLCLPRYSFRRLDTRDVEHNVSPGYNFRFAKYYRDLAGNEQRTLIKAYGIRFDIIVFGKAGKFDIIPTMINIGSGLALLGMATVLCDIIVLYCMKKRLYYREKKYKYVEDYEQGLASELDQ
Protocol: A fluorescent imaging plate reader (FLEX/FLIPR station; Molecular Devices) was used to monitor intracellular calcium levels using the calcium-chelating dye Fluo-8 (Molecular Probes). […] Cells expressing purinergic receptors human P2X4 (HEK human P2X4: PerkinElmer, Product No.: AX-015-PCF) were plated at a density of 20,000 cells/well in poly-D-lysine-coated 384-well plates approximately 20 hours before beginning the assay. On the day of the assay, the medium was removed and 30 μl of dye buffer (Hank's balanced salt solution, 10 mM HEPES, 1.8 mM CaCl2), 1 mM MgCl2, 2 mM probenecid, 5 mM D-glucose monohydrate, 5 μM Fluo-8, pH=7.4) was added for 30 min at […] and 5% CO2. The antagonist in probenecid buffer (Hank's balanced salt solution, 10 mM HEPES, 1.8 mM CaCl2, 1 mM MgCl2, 2 mM probenecid, 5 mM D-glucose monohydrate, pH=7.4) was added in a volume of 10 μl and allowed to incubate for 30 min at room temperature. The final assay DMSO concentration is 0.5%. The agonist, Bz-ATP, is added in a volume of 10 μl at a concentration representing the EC80 value. The fluorescence was measured for an interval of 120 sec at 2 sec intervals and analyzed based on the increase in peak relative fluorescence units (RFU) compared to the basal fluorescence. Peak fluorescence was used to determine the response to agonist obtained at each concentration of antagonist by the following equation:
% Response=100*(RFU(drug)−RFU(control))/(RFU(DMSO)−RFU(control))
The compounds were tested in triplicates per plate and mean values were plotted in Excel XLFit to determine IC50 values, percentage of maximal inhibition and the Hill coefficients.

P2X4 [2] = target: T1, P2X4; assay: Assay B: human P2X4 receptor cell line, mitochondrial photina luminescence (agonist Bz-ATP at EC50); assay type: cell-based; set-up: host or cells: HEK 293 (recombinant, constitutively expressing; with mitochondrial photina in Assay B); conditions: HEK human P2X4 cell line, photina luminescence, agonist Bz-ATP at EC50, average; for Emax: read-out: human P2X4 Assay B avg Efficacy
Summary of the method: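 Bz-ATP at its EC50 activates human P2X4 stably expressed in a cell line that also carries the calcium-sensitive photoprotein mitochondrial photina (coelenterazine cofactor). Light emitted on calcium influx is measured straight away in a luminometer. Reduced luminescence indicates antagonism.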

Row | SMILES | IC50 (P2X4 [1]) | Emax (P2X4 [1]) | IC50 (P2X4 [2]) | Emax (P2X4 [2])
1 | CC1(COc2ccc(NC(=O)Cc3ccccc3Cl)cc2S(N)(=O)=O)CCOCC1 [Example 053, 2-(2-Chlorophenyl)-N-{4-[(4-methyltetrahydro-2H-pyran-4-yl)methoxy]-3-sulfamoylphenyl}acetamide] | 197 nM | 90% | 859 nM | 84%
2 | NS(=O)(=O)c1cc(NC(=O)Cc2ccccc2Cl)ccc1OCC1(F)CCOCC1 [Example 054, 2-(2-chlorophenyl)-N-{4-[(4-fluorotetrahydro-2H-pyran-4-yl)methoxy]-3-sulfamoylphenyl}acetamide] | 68 nM | 94% | 578 nM | 84%
3 | NS(=O)(=O)c1cc(NC(=O)Cc2ccccc2Cl)ccc1Oc1cccc(Br)c1 [Example 059, N-[4-(3-Bromophenoxy)-3-sulfamoylphenyl]-2-(2-chlorophenyl)acetamide] | 45 nM | 85% | 75 nM | 70%
4 | Cc1nc(-c2cccc(Oc3ccc(NC(=O)Cc4ccccc4Cl)cc3S(N)(=O)=O)c2)cs1 [Example 061, 2-(2-Chlorophenyl)-N-{4-[3-(2-methyl-1,3-thiazol-4-yl)phenoxy]-3-sulfamoylphenyl}acetamide] | 53 nM | 88% | 147 nM | 72%
5 | NS(=O)(=O)c1cc(NC(=O)Cc2ccccc2Cl)ccc1Oc1ccc(C2CCC(=O)N2)cc1 (stereo not drawn) [Example 062, 2-(2-Chlorophenyl)-N-{4-[4-(5-oxopyrrolidin-2-yl)phenoxy]-3-sulfamoylphenyl}acetamide] | 560 nM | 95% | 455 nM | 70%
6 | NS(=O)(=O)c1cc(NC(=O)Cc2ccccc2Cl)ccc1Oc1ccc(N2CCOC2=O)cc1 [Example 063, 2-(2-chlorophenyl)-N-{4-[4-(2-oxo-1,3-oxazolidin-3-yl)phenoxy]-3-sulfamoylphenyl}acetamide] | 90 nM | 82% | 221 nM | 70%
7 | NS(=O)(=O)c1cc(NC(=O)Cc2ccccc2Cl)ccc1Oc1ccccc1Cl [Example 065, N-[4-(2-Chlorophenoxy)-3-sulfamoylphenyl]-2-(2-chlorophenyl)acetamide] | – | 81% | – | 70%
8 | NS(=O)(=O)c1cc(NC(=O)Cc2ccccc2Cl)ccc1Oc1ccc(Cl)cc1 [Example 066, N-[4-(4-Chlorophenoxy)-3-sulfamoylphenyl]-2-(2-chlorophenyl)acetamide] | > 25000 nM | 51% | 129 nM | 46%
9 | NS(=O)(=O)c1cc(NC(=O)Cc2ccccc2)ccc1Oc1ccc(Cl)cc1 [Example 077, N-[4-(4-Chlorophenoxy)-3-sulfamoylphenyl]-2-phenylacetamide] | 8340 nM | 54% | 201 nM | 53%
10 | NS(=O)(=O)c1cc(NC(=O)Cc2ccccc2Cl)ccc1Oc1cnc(Cl)nc1 [Example 079] | – | 54% | – | 40%
11 | NS(=O)(=O)c1cc(NC(=O)Cc2ccccc2Cl)ccc1Oc1cncc(F)c1 [Example 080, 2-(2-Chlorophenyl)-N-{4-[(5-fluoropyridin-3-yl)oxy]-3-sulfamoylphenyl}acetamide] | 44 nM | 65% | 140 nM | 51%
12 | NS(=O)(=O)c1cc(NC(=O)Cc2ccccc2Cl)ccc1Oc1ccc(Cl)nc1 [Example 081, 2-(2-Chlorophenyl)-N-{4-[(6-chloropyridin-3-yl)oxy]-3-sulfamoylphenyl}acetamide] | 65 nM | 43% | > 16000 nM | 36%
13 | NS(=O)(=O)c1cc(NC(=O)Cc2ccccc2Cl)c(Cl)cc1Oc1cccc(Cl)c1 [Example 082, N-[2-chloro-4-(3-chlorophenoxy)-5-sulfamoylphenyl]-2-(2-chlorophenyl)acetamide] | > 25000 nM | 31% | > 50000 nM | 33%
